Measurements: ChEMBL document CHEMBL1909046, “DrugMatrix in vitro pharmacology data”

Tests used:
[1] = biological target: Mitogen-activated protein kinase 1 (Homo sapiens, UniProt P28482); assay: DRUGMATRIX: Protein Serine/Threonine Kinase, ERK2 enzyme inhibition (substrate: Myelin Basic Protein); design: species or system Escherichia coli; settings: Not Active = under 50% inhibition at 10 µM
[2] = biological target: Mitogen-activated protein kinase 3 (Homo sapiens, UniProt P27361); assay: DRUGMATRIX: Protein Serine/Threonine Kinase, ERK1 enzyme inhibition (substrate: Myelin Basic Protein); design: species or system Escherichia coli; settings: Not Active = under 50% inhibition at 10 µM
[3] = DRUGMATRIX: Potassium Channel [KATP] radioligand binding (ligand: [3H] Glyburide); type: cell membranes, Membrane; settings: hit-t15; Not Active = under 50% inhibition at 10 µM
[4] = biological target: T1, Cathepsin G (Homo sapiens, UniProt P08311); type: tissue-based; settings: neutrophil;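 further: inhibition of Cathepsin G enzyme activity, tested on an AMC-conjugated peptide substrate; in other assays of this panel Not Active means under 50% inhibition at 10 µM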
T1 sequence (P08311 whole entry): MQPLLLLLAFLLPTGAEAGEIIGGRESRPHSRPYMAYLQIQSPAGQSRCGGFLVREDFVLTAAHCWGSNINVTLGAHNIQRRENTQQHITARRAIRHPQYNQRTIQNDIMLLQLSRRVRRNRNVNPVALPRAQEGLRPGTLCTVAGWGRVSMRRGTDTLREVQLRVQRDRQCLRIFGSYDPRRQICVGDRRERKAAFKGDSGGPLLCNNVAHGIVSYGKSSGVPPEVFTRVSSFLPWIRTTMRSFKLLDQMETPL

[5] = biological target: Cytochrome P450 2C9 (Homo sapiens, UniProt P11712); settings: bti-tn-5b1-4; further: in other assays of this panel Not Active means under 50% inhibition at 10 µM
[6] = biological target: T2, Cholecystokinin receptor type A (Homo sapiens, UniProt P32238); type: cell membranes, Membrane; settings: 1321-n1; further: in other assays of this panel Not Active means under 50% inhibition at 10 µM
T2 sequence (P32238 whole entry): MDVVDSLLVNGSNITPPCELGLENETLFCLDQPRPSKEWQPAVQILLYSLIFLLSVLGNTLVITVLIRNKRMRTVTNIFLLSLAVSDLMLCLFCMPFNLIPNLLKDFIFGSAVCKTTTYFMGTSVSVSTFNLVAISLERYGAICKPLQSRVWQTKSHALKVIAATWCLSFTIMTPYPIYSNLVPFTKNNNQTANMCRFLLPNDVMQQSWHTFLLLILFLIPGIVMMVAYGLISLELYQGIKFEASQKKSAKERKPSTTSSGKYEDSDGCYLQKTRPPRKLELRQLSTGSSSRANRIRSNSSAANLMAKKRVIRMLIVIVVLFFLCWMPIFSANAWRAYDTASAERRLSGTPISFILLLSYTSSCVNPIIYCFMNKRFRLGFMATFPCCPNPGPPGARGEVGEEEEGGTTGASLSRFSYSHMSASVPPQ

[7] = DRUGMATRIX: Platelet-Derived Growth Factor (PDGF) radioligand binding (ligand: [125I] PDGF); type: cell-based; settings: nih3t3; Not Active = under 50% inhibition at 10 µM
[8] = biological target: T3, Leukotriene C4 synthase (Cavia porcellus, UniProt A6XA80); type: tissue-based, Lung;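 further: enzyme inhibition assay of leukotriene C4 synthase, using LTA4 as the substrate; in other assays of this panel Not Active means under 50% inhibition at 10 µM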
T3 sequence (A6XA80 whole entry): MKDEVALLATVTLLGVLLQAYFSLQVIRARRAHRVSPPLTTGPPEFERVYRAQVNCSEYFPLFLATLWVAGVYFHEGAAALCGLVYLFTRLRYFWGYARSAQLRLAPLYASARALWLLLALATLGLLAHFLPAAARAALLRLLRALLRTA

[9] = biological target: Cytochrome P450 2E1 (Homo sapiens, UniProt P05181); settings: bti-tn-5b1-4; further: in other assays of this panel Not Active means under 50% inhibition at 10 µM
Cytochrome P450 2E1, sequence (P05181 whole entry): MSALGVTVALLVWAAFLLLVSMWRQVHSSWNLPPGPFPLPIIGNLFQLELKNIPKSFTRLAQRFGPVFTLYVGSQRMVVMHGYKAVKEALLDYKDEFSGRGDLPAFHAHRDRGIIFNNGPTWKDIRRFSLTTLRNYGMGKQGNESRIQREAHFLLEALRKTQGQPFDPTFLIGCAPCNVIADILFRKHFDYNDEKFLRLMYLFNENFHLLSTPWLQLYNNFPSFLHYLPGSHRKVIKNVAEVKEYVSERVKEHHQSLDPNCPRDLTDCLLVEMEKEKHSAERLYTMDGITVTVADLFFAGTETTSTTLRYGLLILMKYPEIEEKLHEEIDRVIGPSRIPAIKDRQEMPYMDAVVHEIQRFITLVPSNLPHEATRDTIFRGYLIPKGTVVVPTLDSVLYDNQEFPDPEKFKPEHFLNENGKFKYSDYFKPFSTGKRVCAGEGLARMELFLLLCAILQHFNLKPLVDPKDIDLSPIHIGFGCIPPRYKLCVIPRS

Cytochrome P450 2C9, sequence (P11712 whole entry): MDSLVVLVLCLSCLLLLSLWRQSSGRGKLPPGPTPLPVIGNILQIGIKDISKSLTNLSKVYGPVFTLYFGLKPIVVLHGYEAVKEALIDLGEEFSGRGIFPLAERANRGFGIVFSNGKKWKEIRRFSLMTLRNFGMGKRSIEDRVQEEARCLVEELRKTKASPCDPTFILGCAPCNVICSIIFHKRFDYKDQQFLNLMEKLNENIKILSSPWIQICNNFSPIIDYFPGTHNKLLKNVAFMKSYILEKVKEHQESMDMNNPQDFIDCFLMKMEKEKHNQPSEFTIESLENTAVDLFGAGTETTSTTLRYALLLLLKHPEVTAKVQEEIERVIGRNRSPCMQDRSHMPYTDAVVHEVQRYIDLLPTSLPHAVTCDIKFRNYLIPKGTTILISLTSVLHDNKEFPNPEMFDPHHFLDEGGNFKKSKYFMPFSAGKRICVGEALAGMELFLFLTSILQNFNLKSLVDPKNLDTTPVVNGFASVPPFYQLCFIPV
Mitogen-activated protein kinase 1, sequence (P28482 whole entry): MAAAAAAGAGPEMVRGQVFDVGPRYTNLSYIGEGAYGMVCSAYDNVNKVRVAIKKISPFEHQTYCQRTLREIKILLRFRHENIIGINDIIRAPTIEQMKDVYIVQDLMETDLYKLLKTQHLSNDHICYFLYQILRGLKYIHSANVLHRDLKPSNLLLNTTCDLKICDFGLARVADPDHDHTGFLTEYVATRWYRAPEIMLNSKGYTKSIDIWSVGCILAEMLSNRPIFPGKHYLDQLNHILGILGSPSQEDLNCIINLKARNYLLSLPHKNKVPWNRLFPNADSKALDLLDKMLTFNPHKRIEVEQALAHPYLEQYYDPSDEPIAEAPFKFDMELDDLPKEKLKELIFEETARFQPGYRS
Mitogen-activated protein kinase 3, sequence (P27361 whole entry): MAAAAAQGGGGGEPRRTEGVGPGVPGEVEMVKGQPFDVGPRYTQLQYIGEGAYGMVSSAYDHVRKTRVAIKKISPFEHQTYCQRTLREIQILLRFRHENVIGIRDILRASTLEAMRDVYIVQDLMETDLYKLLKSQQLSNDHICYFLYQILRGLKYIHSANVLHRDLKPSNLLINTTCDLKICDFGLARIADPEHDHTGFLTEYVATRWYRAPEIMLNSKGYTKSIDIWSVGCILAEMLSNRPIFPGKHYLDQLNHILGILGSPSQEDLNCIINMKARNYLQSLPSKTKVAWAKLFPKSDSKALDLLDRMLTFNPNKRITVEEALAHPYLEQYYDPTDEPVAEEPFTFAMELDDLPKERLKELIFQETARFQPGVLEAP

CC1(C)O[C@@H]2C[C@H]3[C@@H]4CCC5=CC(=O)CC[C@]5(C)[C@@]4(F)[C@@H](O)C[C@]3(C)[C@]2(C(=O)CCl)O1 [HALCINONIDE]
Not Active: IC50 [1] | IC50 [2] | IC50 [3] | Ki [3] | IC50 [4] | IC50 [5] | Ki [5] | IC50 [6] | IC50 [7] | Ki [7] | IC50 [8] | IC50 [9] | Ki [9]

O=c1[nH]c(=O)n([C@H]2C[C@H](O)[C@@H](CO)O2)cc1I [IDOXURIDINE]
Not Active: IC50 [1] | IC50 [2] | IC50 [3] | Ki [3] | IC50 [4] | IC50 [5] | Ki [5] | IC50 [6] | IC50 [7] | Ki [7] | IC50 [8] | IC50 [9] | Ki [9]

CC1Cc2ccccc2N1NC(=O)c1ccc(Cl)c(S(N)(=O)=O)c1 (stereo not given) [INDAPAMIDE]
Not Active: IC50 [1] | IC50 [2] | IC50 [3] | Ki [3] | IC50 [4] | IC50 [5] | Ki [5] | IC50 [6] | IC50 [7] | Ki [7] | IC50 [8] | IC50 [9] | Ki [9]

Nc1nc(N)nc(-c2cc(Cl)ccc2Cl)n1.O=C(O)/C=C\C(=O)O [IRSOGLADINE MALEATE]
Not Active: IC50 [1] | IC50 [2] | IC50 [3] | Ki [3] | IC50 [4] | IC50 [5] | Ki [5] | IC50 [6] | IC50 [7] | Ki [7] | IC50 [8] | IC50 [9] | Ki [9]

CCC(C)n1ncn(-c2ccc(N3CCN(c4ccc(OCC5COC(Cn6cncn6)(c6ccc(Cl)cc6Cl)O5)cc4)CC3)cc2)c1=O (stereo not given) [ITRACONAZOLE]
Not Active: IC50 [1] | IC50 [2] | IC50 [3] | Ki [3] | IC50 [4] | IC50 [5] | Ki [5] | IC50 [6] | IC50 [7] | Ki [7] | IC50 [8] | IC50 [9] | Ki [9]

CCCCN1CCCC[C@H]1C(=O)Nc1c(C)cccc1C [LEVOBUPIVACAINE]
Not Active: IC50 [1] | IC50 [2] | IC50 [3] | Ki [3] | IC50 [4] | IC50 [5] | Ki [5] | IC50 [6] | IC50 [7] | Ki [7] | IC50 [8] | IC50 [9] | Ki [9]

Sc1ncnc2nc[nH]c12 [MERCAPTOPURINE ANHYDROUS]
Not Active: IC50 [1] | IC50 [2] | IC50 [3] | Ki [3] | IC50 [4] | IC50 [5] | Ki [5] | IC50 [6] | IC50 [7] | Ki [7] | IC50 [8] | IC50 [9] | Ki [9]

C[C@](N)(Cc1ccc(O)c(O)c1)C(=O)O [METHYLDOPA]
Not Active: IC50 [1] | IC50 [2] | IC50 [3] | Ki [3] | IC50 [4] | IC50 [5] | Ki [5] | IC50 [6] | IC50 [7] | Ki [7] | IC50 [8] | IC50 [9] | Ki [9]

C[C@]12CCC(=O)C=C1CC[C@@H]1[C@@H]2CC[C@@]2(C)[C@H]1CC[C@]2(C)O [METHYLTESTOSTERONE]
Not Active: IC50 [1] | IC50 [2] | IC50 [3] | Ki [3] | IC50 [4] | IC50 [5] | Ki [5] | IC50 [6] | IC50 [7] | Ki [7] | IC50 [8] | IC50 [9] | Ki [9]

Cc1ccccc1N1C(=O)c2cc(S(N)(=O)=O)c(Cl)cc2NC1C (stereo not given) [METOLAZONE]
Not Active: IC50 [1] | IC50 [2] | IC50 [3] | Ki [3] | IC50 [4] | IC50 [5] | Ki [5] | IC50 [6] | IC50 [7] | Ki [7] | IC50 [8] | IC50 [9] | Ki [9]

COCCc1ccc(OCC(O)CNC(C)C)cc1 (stereo not given) [METOPROLOL]
Not Active: IC50 [1] | IC50 [2] | IC50 [3] | Ki [3] | IC50 [4] | IC50 [5] | Ki [5] | IC50 [6] | IC50 [7] | Ki [7] | IC50 [8] | IC50 [9] | Ki [9]

CCn1cc(C(=O)O)c(=O)c2cc(F)c(N3CCNCC3)cc21 [NORFLOXACIN]
Not Active: IC50 [1] | IC50 [2] | IC50 [3] | Ki [3] | IC50 [4] | IC50 [5] | Ki [5] | IC50 [6] | IC50 [7] | Ki [7] | IC50 [8] | IC50 [9] | Ki [9]

NC1=NC(=O)C(c2ccccc2)O1 (stereo not given) [PEMOLINE]
Not Active: IC50 [1] | IC50 [2] | IC50 [3] | Ki [3] | IC50 [4] | IC50 [5] | Ki [5] | IC50 [6] | IC50 [7] | Ki [7] | IC50 [8] | IC50 [9] | Ki [9]

Nc1nc2c(ncn2CCC(CO)CO)c(=O)[nH]1 [PENCICLOVIR]
Not Active: IC50 [1] | IC50 [2] | IC50 [3] | Ki [3] | IC50 [4] | IC50 [5] | Ki [5] | IC50 [6] | IC50 [7] | Ki [7] | IC50 [8] | IC50 [9] | Ki [9]

C=C(C)C1(O)OC(=O)C=C1OC (stereo not given) [PENICILLIC ACID]
Not Active: IC50 [1] | IC50 [2] | IC50 [3] | Ki [3] | IC50 [4] | IC50 [5] | Ki [5] | IC50 [6] | IC50 [7] | Ki [7] | IC50 [8] | IC50 [9] | Ki [9]

CCCN1C[C@H](CSC)C[C@@H]2c3cccc4[nH]cc(c34)C[C@H]21 [PERGOLIDE]
Not Active: IC50 [1] | IC50 [2] | IC50 [3] | Ki [3] | IC50 [4] | IC50 [5] | Ki [5] | IC50 [6] | IC50 [7] | Ki [7] | IC50 [8] | IC50 [9] | Ki [9]

C1CCC(C(CC2CCCCN2)C2CCCCC2)CC1 (stereo not given) [PERHEXILINE]
Not Active: IC50 [1] | IC50 [2] | IC50 [3] | Ki [3] | IC50 [4] | IC50 [5] | Ki [5] | IC50 [6] | IC50 [7] | Ki [7] | IC50 [8] | IC50 [9] | Ki [9]

CCOc1ccc(NC(C)=O)cc1 [PHENACETIN]
Not Active: IC50 [1] | IC50 [2] | IC50 [3] | Ki [3] | IC50 [4] | IC50 [5] | Ki [5] | IC50 [6] | IC50 [7] | Ki [7] | IC50 [8] | IC50 [9] | Ki [9]

Cc1ccc(N(CC2=NCCN2)c2cccc(O)c2)cc1 [PHENTOLAMINE]
Not Active: IC50 [1] | IC50 [2] | IC50 [3] | Ki [3] | IC50 [4] | IC50 [5] | Ki [5] | IC50 [6] | IC50 [7] | Ki [7] | IC50 [8] | IC50 [9] | Ki [9]

CNNCc1ccc(C(=O)NC(C)C)cc1 [PROCARBAZINE]
Not Active: IC50 [1] | IC50 [2] | IC50 [3] | Ki [3] | IC50 [4] | IC50 [5] | Ki [5] | IC50 [6] | IC50 [7] | Ki [7] | IC50 [8] | IC50 [9] | Ki [9]
